We go through one molecule from paper PMC12775434, “Ultra-large virtual screening unveils potent agonists of the neuromodulatory orphan receptor GPR139” (Nature Communications, 2025).

The target of this experiment is T1, GPR139 (Homo sapiens, UniProt Q6DWJ6).
T1 sequence (Q6DWJ6 1-353): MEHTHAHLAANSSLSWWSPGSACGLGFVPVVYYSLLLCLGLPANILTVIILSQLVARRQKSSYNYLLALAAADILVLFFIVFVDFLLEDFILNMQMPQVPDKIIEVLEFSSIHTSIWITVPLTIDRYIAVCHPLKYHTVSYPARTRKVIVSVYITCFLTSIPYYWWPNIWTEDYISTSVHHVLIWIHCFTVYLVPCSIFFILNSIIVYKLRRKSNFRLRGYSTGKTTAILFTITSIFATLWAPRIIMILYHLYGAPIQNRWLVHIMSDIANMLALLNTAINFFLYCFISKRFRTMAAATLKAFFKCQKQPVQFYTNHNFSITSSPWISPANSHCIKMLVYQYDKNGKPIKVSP
As to the kind of experiment: Inositol monophosphate (IP1) accumulation assay, GPR139-CHOk1. It is filed as cell-based.

Broadly, the Emax is the greatest response seen or fitted, relative to the assay's reference.

Where “and” joins values, the source holds several entries; their conditions need not be identical. Equal entries are not always repeated.

Regarding `COc1cc(OC)cc(C(=O)NNC(=O)Nc2cccc3ccccc23)c1` [Lundbeck Cmp 1a, reference compound], where the note is “Supplementary Table 2, mean ± SEM, read-out: pEC50 IP1 (converted)”, the EC50 is 501 nM. The “IP1 response (% of Cmp 1a)” value (log [Compound] M -4.5, replicate experiments) was 68 % of Cmp 1a and 118 % of Cmp 1a and 94 % of Cmp 1a and 117 % of Cmp 1a and 98 % of Cmp 1a and 86 % of Cmp 1a and 109 % of Cmp 1a; the “IP1 response (% of Cmp 1a)” value (log [Compound] M -5.0, replicate experiments) is 78 % of Cmp 1a and 115 % of Cmp 1a and 96 % of Cmp 1a and 112 % of Cmp 1a and 133 % of Cmp 1a and 94 % of Cmp 1a and 86 % of Cmp 1a and 118 % of Cmp 1a; the “IP1 response (% of Cmp 1a)” value (log [Compound] M -5.5, replicate experiments) was 88 % of Cmp 1a and 100 % of Cmp 1a and 81 % of Cmp 1a and 120 % of Cmp 1a and 61 % of Cmp 1a and 70 % of Cmp 1a and 104 % of Cmp 1a; the “IP1 response (% of Cmp 1a)” value (log [Compound] M -6.0, replicate experiments) was 58 % of Cmp 1a and 80 % of Cmp 1a and 57 % of Cmp 1a and 63 % of Cmp 1a and 85 % of Cmp 1a and 49 % of Cmp 1a and 68 % of Cmp 1a and 66 % of Cmp 1a; the “IP1 response (% of Cmp 1a)” value (log [Compound] M -6.5, replicate experiments) is 29 % of Cmp 1a and 32 % of Cmp 1a and 26 % of Cmp 1a and 50 % of Cmp 1a and 44 % of Cmp 1a and 31 % of Cmp 1a and 21 % of Cmp 1a; the “IP1 response (% of Cmp 1a)” value (log [Compound] M -7.0, replicate experiments) was 7.48 % of Cmp 1a and 13 % of Cmp 1a and 2.79 % of Cmp 1a and 11 % of Cmp 1a and 21 % of Cmp 1a and 9 % of Cmp 1a and 3.75 % of Cmp 1a and 17 % of Cmp 1a. Further, the “IP1 response (% of Cmp 1a)” value is, setting by setting: (log [Compound] M -7.5, replicate experiments) 6 % of Cmp 1a and 4.58 % of Cmp 1a and 1.86 % of Cmp 1a and 3 % of Cmp 1a and 16 % of Cmp 1a and 1.22 % of Cmp 1a and 0.482 % of Cmp 1a and 2.32 % of Cmp 1a; (log [Compound] M -8.0, replicate experiments) 1.17 % of Cmp 1a and 1.86 % of Cmp 1a and 0.194 % of Cmp 1a and 1 % of Cmp 1a and 1.43 % of Cmp 1a and -8 % of Cmp 1a and -2.66 % of Cmp 1a and -4 % of Cmp 1a; (log [compound] M -4.5, individual replicates) 98 % of Cmp 1a and 68 % of Cmp 1a and 86 % of Cmp 1a and 109 % of Cmp 1a; (log [compound] M -5.0, individual replicates) 133 % of Cmp 1a and 94 % of Cmp 1a and 86 % of Cmp 1a and 118 % of Cmp 1a; (log [compound] M -5.5, individual replicates) 120 % of Cmp 1a and 61 % of Cmp 1a and 70 % of Cmp 1a and 104 % of Cmp 1a; (log [compound] M -6.0, individual replicates) 85 % of Cmp 1a and 49 % of Cmp 1a and 68 % of Cmp 1a and 66 % of Cmp 1a. The “IP1 response (% of Cmp 1a)” value runs as follows: (log [compound] M -6.5, individual replicates) 50 % of Cmp 1a and 44 % of Cmp 1a and 31 % of Cmp 1a and 21 % of Cmp 1a; (log [compound] M -7.0, individual replicates) 21 % of Cmp 1a and 9 % of Cmp 1a and 3.75 % of Cmp 1a and 17 % of Cmp 1a; (log [compound] M -7.5, individual replicates) 16 % of Cmp 1a and 1.22 % of Cmp 1a and 0.482 % of Cmp 1a and 2.32 % of Cmp 1a; (log [compound] M -8.0, individual replicates) 1.43 % of Cmp 1a and -8 % of Cmp 1a and -2.66 % of Cmp 1a and -4 % of Cmp 1a. For the same molecule, under “read-out: Emax (%) IP1”, the Emax was 101 ± 12%.
